Experimental data reported in US20250120946A1, “USE OF PYRROLE COMPOUND IN TREATMENT OF TUMORS” (NANJING SHIJIANG MEDICINE TECHNOLOGY CO., LTD, priority 2021, published 2025).
Like-named read-outs stand apart in the source and are kept apart here.

Experiments:
[1] = tested on: NCI-H82 (human small cell lung cancer cell); test: Cell viability, Promega CellTiter-Glo kit (intracellular ATP), NCI-H82; assay type: cell-based; conditions: sensitive group, 3-4 days of culture, n=3, read-out: IC50 (50% inhibiting concentration), inhibitory effect on cell line
Description: (§1) In the experiment, the IC50 value of sunitinib or sunitinib malate on various tumor cell lines was determined.

[2] = tested on: CFPAC-1 (human pancreatic cancer cell); test: Cell viability, Promega CellTiter-Glo kit (intracellular ATP), CFPAC-1; assay type: cell-based; conditions: insensitive group, 3-4 days of culture, n=3, read-out: IC50 (50% inhibiting concentration), inhibitory effect on cell line
Description: as §1
(§2) After 3-4 days of culture, the relevant IC50 (50% inhibiting concentration) was measured (n=3).

[3] = tested on: MDA-MB-453 (breast cancer cell); test: Cell viability, Promega CellTiter-Glo kit (intracellular ATP), MDA-MB-453; conditions: sensitive group, 3-4 days of culture, n=3
[4] = tested on: G-401 (human renal carcinoma Wilms cell); test: Cell viability, Promega CellTiter-Glo kit (intracellular ATP), G-401; assay type: cell-based; conditions: sensitive group, 3-4 days of culture, n=3, read-out: IC50 (50% inhibiting concentration), inhibitory effect on cell line
Description: as §1, §2

[5] = tested on: GB-1 (human glioblastoma cell); test: Cell viability, Promega CellTiter-Glo kit (intracellular ATP), GB-1; assay type: cell-based; conditions: insensitive group, 3-4 days of culture, n=3, read-out: IC50 (50% inhibiting concentration), inhibitory effect on cell line
Description: as §1, §2

[6] = tested on: SF126 (human glioblastoma multiforme cell); test: Cell viability, Promega CellTiter-Glo kit (intracellular ATP), SF126; assay type: cell-based; conditions: insensitive group, 3-4 days of culture, n=3, read-out: IC50 (50% inhibiting concentration), inhibitory effect on cell line
Description: as §1, §2

[7] = tested on: WSU-DLCL2 (human diffuse large B-cell lymphoma); test: Cell viability, Promega CellTiter-Glo kit (intracellular ATP), WSU-DLCL2; assay type: cell-based; conditions: sensitive group, 3-4 days of culture, n=3, read-out: IC50 (50% inhibiting concentration), inhibitory effect on cell line
Description: as §1, §2

[8] = tested on: control NCI-H82 cell (NCI-H82 (Con)); test: Cell viability, Promega CellTiter-Glo kit, control NCI-H82 cell; assay type: cell-based, human; conditions: n=3
Source text: (§3) The NNMT protein-overexpressing NCI-H82 cell (NCI-H82 (ov-NNMT)) was obtained by inserting the NNMT gene into NCI-H82 cell using a viral vector. The control NCI-H82 cell (NCI-H82 (Con)) was obtained by transfecting NCI-H82 cell with empty virus vector without carrying NNMT gene.

[9] = tested on: SW48 (human colon adenocarcinoma cell); test: Cell viability, Promega CellTiter-Glo kit (intracellular ATP), SW48; assay type: cell-based; conditions: sensitive group, 3-4 days of culture, n=3, read-out: IC50 (50% inhibiting concentration), inhibitory effect on cell line
Description: as §1, §2

[10] = tested on: 786-O (clear cell renal cell adenocarcinoma cell); test: Cell viability, Promega CellTiter-Glo kit (intracellular ATP), 786-O; assay type: cell-based, human; conditions: insensitive group, 3-4 days of culture, n=3, read-out: IC50 (50% inhibiting concentration), inhibitory effect on cell line
Description: as §1, §2

[11] = tested on: NNMT protein-overexpressing NCI-H82 cell (NCI-H82 (ov-NNMT)); test: Cell viability, Promega CellTiter-Glo kit, NNMT protein-overexpressing NCI-H82 cell; assay type: cell-based, human; conditions: n=3
Source text: as §3

CCN(CC)CCNC(=O)c1c(C)[nH]c(/C=C2\C(=O)Nc3ccc(F)cc32)c1C [Sunitinib, sunitinib]
IC50 ([1]; Homo sapiens, NCI-H82, NCI-H82): 1300 nM
IC50 ([2]; Homo sapiens, CFPAC-1, CFPAC-1): 19600 nM
IC50 ([3]; Homo sapiens, MDA-MB-453, read-out: IC50 (50% inhibiting concentration), inhibitory effect on cell line, MDA-MB-453): 2470 nM
IC50 ([4]; Homo sapiens, G-401, G-401): 2910 nM
IC50 ([5]; Homo sapiens): 10700 nM
IC50 ([6]; Homo sapiens, SF-126, SF126): 11400 nM
IC50 ([7]; Homo sapiens, WSUDLCL2, WSU-DLCL2): 1340 nM
IC50 ([8]; Homo sapiens, NCI-H82, NCI-H82 transfected with empty virus vector without NNMT gene): 1240 nM
IC50 ([9]; Homo sapiens, SW48, SW48): 1150 nM
IC50 ([10]; Homo sapiens, 786-0, 786-O): 23700 nM
IC50 ([11]; Homo sapiens, NCI-H82, NCI-H82 with NNMT gene inserted via viral vector (NNMT protein overexpressed)): 2960 nM

CCN(CC)CCNC(=O)c1c(C)[nH]c(/C=C2\C(=O)Nc3ccc(F)cc32)c1C [Sunitinib malate, sunitinib malate]
IC50 ([1]; NCI-H82): 1290 nM
IC50 ([2]; CFPAC-1): 16800 nM
IC50 ([3]; read-out: IC50 (50% inhibiting concentration), inhibitory effect on cell line, MDA-MB-453): 2330 nM
IC50 ([4]; G-401): 2500 nM
IC50 [5]: 12100 nM
IC50 ([6]; SF126): 12400 nM
IC50 ([7]; WSU-DLCL2): 1110 nM
IC50 ([8]; NCI-H82 transfected with empty virus vector without NNMT gene): 1210 nM
IC50 ([9]; SW48): 1470 nM
IC50 ([10]; 786-O): 17800 nM
IC50 ([11]; NCI-H82 with NNMT gene inserted via viral vector (NNMT protein overexpressed)): 3310 nM
